According to patent publication US12616672B2, “Methods for assessing risk of cardiovascular disease and methods and compounds for use in treating or preventing cardiovascular disease” (Queen Mary University of London, priority 2017, dated 2026):

Test system: peripheral blood leukocytes and platelets from CVD patients
Assay: CVD patient whole blood incubated with RvD2n-3 DPA or RvD5n-3 DPA for 45 min, flow cytometry
Assay type: cell-based, human
Conditions: no PAF
Description: FIG. 8: RvD2n-3 DPA and RvD5n-3 DPA reduce leukocyte activation in peripheral blood from CVD patients. Peripheral blood from patients diagnosed with cardiovascular disease (CVD) was collected at 9:00 h. […] Expression of CD62P on (A) neutrophils (B) monocytes and CD11b on (C) neutrophils and (D) monocytes was investigated using flow cytometry and fluorescently labelled antibodies.
Whole blood was incubated with lineage-specific markers for 45 min (4° C., in DPBS containing 0.02% BSA). The following anti-human antibodies were used: VioBlue-anti-CD41, PE-Cy5-anti-CD62P, Brilliant Violet 711-anti-CD11b, APC-Cy7-anti-CD16, Alexa Fluor 647-anti-CD14. After staining, red blood cells were lysed using Whole Blood Lysing Reagent Kit, according to the manufacturer's instructions. Data was collected using a flow cytometer and analysis was conducted using appropriate software.
In select experiments platelet adhesion molecule expression was assessed. Here platelets were incubated with fluorescently labelled mouse anti-human VioBlue-anti-CD41, PE-Cy5-anti-CD62P, PerCP/Cy5.5-anti-CD63 and FITC-ant-CD42b for 30 min at 4° C. Cells were then washed and fluorescence, staining evaluated using LSRFortessa cell analyser (BD Biosciences) and analysed using FlowJo software (Tree Star Inc., V10).

[1] = CVD patient whole blood, 0.1, 1, 10 nM, 45 min
[2] = CVD patient whole blood, 45 min

How did the “monocyte CD11b expression” value [1] turn out when CC/C=C\C[C@H](O)/C=C/C=C\C/C=C\C=C\[C@@H](O)CCCCCC(=O)O [RvD5n-3 DPA, 7,17-trihydroxy-8E,10,13,15E,19Z-docosapentaenoic acid] was run?
Its value is “significantly reduced”.

What about the “neutrophil CD11b expression” value [1] of the same compound?
Its value is “significantly reduced”.

What about the platelet-monocyte aggregates [1] of the same compound?
Its platelet-monocyte aggregates is “reduction”.

What about the platelet-neutrophil aggregates [1] of the same compound?
The platelet-neutrophil aggregates was “reduction”.

And the “platelet CD62P expression” value [2]?
Its value is “downregulated”.

And the “platelet CD63 expression” value [2]?
The value was “downregulated”.

And the “potency in reducing neutrophil-platelet and monocyte-platelet aggregates, compared” value (CVD patient whole blood)?
The value was “higher potency than RvD2n-3 DPA”.
